# Measurements from patent US9732047B2, “N-alkoxyamide conjugates as imaging agents” (Lantheus Medical Imaging, Inc., priority 2008, dated 2017).
# Where two headings read alike, the source gives them in different places.
# How the values were obtained:
# aorta [1] = assay: In vivo rabbit aorta MR imaging; parameters: species or system New Zealand White male rabbits; details: atherosclerotic rabbit, 0.1 mmol/kg via marginal ear vein, MR at 4.7 T, shortly after injection
# Procedure: A series of pre-injection images were acquired. The rabbit was then injected with test compound (i.e., Example 31) at 0.1 mmol/kg via the marginal ear vein and images acquired at specified time intervals. All images were acquired at 4.7 T using an 8.5 cm field of view, 256×256 matrix using a black blood, flow-suppressed spin-echo method.
# [2] = tested on: Aorta bearing atherosclerotic plaque; assay: Ex-vivo blood vessel binding assay; parameters: species or system New Zealand white rabbits; details: 153Gd-labeled compound 0.135 μCi in PBS, 2 h at 37° C., plaque-bearing rabbit aorta sections; percentage of initial activity
# Procedure: Aorta bearing atherosclerotic plaque was obtained from New Zealand white rabbits that were balloon stripped along the abdominal aorta and placed on a high fat diet (0.5% cholesterol) for 16-22 weeks. Vascular injury was produced with a 4-F Fogarty catheter along the abdominal aorta and right iliofemoral artery. This procedure generates an accelerated complex lesion development with a lipid rich core covered by a fibrous cap in rabbits. Harvested aorta sections (0.5 cm) were incubated with 0.135 μCi of ^153Gd-labeled compound diluted in phosphate buffered saline (450 μL) for 2 h at 37° C. The supernatant was removed and analyzed by HPLC to assay compound stability. The tissue section was then washed with phosphate buffered saline (3×10 mL), then resuspended (10 mL) and incubated at 37° C. an additional 1 h. The supernatant was then removed, the washing process repeated and the tissue finally counted on a gamma counter. The amount of compound bound to the tissue was determined as a percentage of the initial activity according to the following formula: […]
# aorta [3] = details: 60 min post injection
# Procedure: The apolipoprotein E (ApoE) knockout mouse is a model of hypercholesterolemia that develops atherosclerotic lesions in the brachiocephalic artery, the aortic arch and the abdominal aorta. Mice were fed a high-fat diet to accelerate plaque formation and compounds were tested in the mice between 35-42 weeks on diet. Test compounds were administered at 0.3-0.4 mCi/kg to anesthetized mice in a single, bolus injection via the tail vein. Blood samples were collected via the tail between 0-30 min post injection for pharmacokinetic analysis and mice were euthanized by CO2 at 60 min for tissue harvesting. The aorta was first flushed with saline through the left ventricle exiting via the femoral vein then removed from the heart to the renal bifurcation; additional biological samples were also collected (blood, muscle, liver, kidney, bile, urine, heart, femur, reproductive organ, lung, spleen and innominate artery). All samples were weighed and assayed for radioactivity; uptake is expressed as a percentage of injected dose per gram of tissue (% ID/g).
# aorta [4] = details: 60 min post injection; for aorta (% ID/g ± SD): 0.01-0.05 mCi/kg bolus via marginal ear vein
# Procedure: Atherosclerosis was induced in New Zealand White male rabbits (3 kg) with aortic balloon endothelial injury (vide supra) followed by feeding a 0.5% cholesterol diet for 22 weeks. Test compounds were administered at 0.01-0.05 mCi/kg to anesthetized rabbits in a single, bolus injection via the marginal ear vein. Blood samples were collected from the central ear artery at 0, 2, 5, 7, 10, 15, 30 and 60 min post injection. Rabbits were euthanized at 60 min post injection for tissue harvesting (blood, muscle, bile, urine, kidney, liver, spleen, heart, lung, colon, small intestine, stomach, testes and in some cases, sternum, ligament and right ear). Abdominal aorta (upper, middle, and lower) and left and right femoral arteries were also collected. All samples were weighed and assayed for radioactivity; uptake is expressed as percentage of injected dose per gram of tissue (% ID/g).
Structure (SMILES),relative image intensity in the aorta (aorta [1]),% bound [2] [%],"aorta uptake (% ID/g) (aorta [3]; ApoE mice on high-fat diet 35-42 weeks, 0.3-0.4 mCi/kg bolus via tail vein)","aorta:blood (aorta [3]; ApoE mice, uptake ratio)","aorta:heart (aorta [3]; ApoE mice, uptake ratio)",aorta (% ID/g ± SD) (aorta [4]; control rabbit (non-plaque bearing)) [% ID/g],aorta:blood (aorta [4]; control rabbit),aorta:heart (aorta [4]; control rabbit),aorta (% ID/g ± SD) (aorta [4]; plaque rabbit) [% ID/g],aorta:blood (aorta [4]; plaque rabbit),aorta:heart (aorta [4]; plaque rabbit)
CC(C)C[C@@H](N)C(=O)NOCc1ccc(CNC(=O)CN2CCN(CC(=O)[O-])CCN(CC(=O)[O-])CCN(CC(=O)[O-])CC2)cc1.[Gd+3] [Example 31],marked increase of relative image intensity in the aorta,–,–,–,–,–,–,–,–,–,–
N[C@H](Cc1ccc2ccccc2c1)C(=O)NOCc1ccc(CNC(=O)CN2CCN(CC(=O)[O-])CCN(CC(=O)[O-])CCN(CC(=O)[O-])CC2)cc1.[153Gd+3] [Example 60],–,30.9,18.4 ± 2.4,9.8,25.2,0.187 ± 0.022,3.8,6.4,0.108 ± 0.012,2.4,4.0
